Experimental data as given in patent publication US9523100B2, “Pesticidal compositions and related methods” (DOW AGROSCIENCES LLC, priority 2013, dated 2016).

Legend:
[1] = tested on: Sweetpotato Whitefly-Crawler (WF) (Bemisia tabaci) (BEMITA); test: Insecticidal test for Sweetpotato Whitefly-Crawler (WF) in foliar spray assay on cotton plants; format: in vivo; conditions: 216 h, 200 ppm foliar spray on cotton plants, graded after 9 days, Abbott corrected % control, read-out: WF 200 ppm, % Control (or Mortality) rating
Description: Insecticidal Test for Sweetpotato Whitefly-Crawler (WF) (Bemisia tabaci) (BEMITA) in Foliar Spray Assay
The sweetpotato whitefly (Bemisia tabaci) has been reported as a serious pest of cultivated crops world-wide. It has an extremely wide host range attacking more than 500 species of plants from 63 plant families. Weeds often serve as alternate hosts of crop pests. Direct feeding damage is caused by the piercing and sucking sap from the foliage of plants. This feeding causes weakening and early wilting of the plant and reduces the plant growth rate and yield Indirect damage results by the accumulation of honeydew produced by the whiteflies. Honeydew serves as a substrate for the growth of black sooty mold on leaves and fruit reducing photosynthesis and lessens the market value of the plant or yield. […] The sweetpotato whitefly is considered the most common and important whitefly vector of plant viruses worldwide.
Cotton plants (Gossypium hirsutum) grown in 3-inch pots, with 1 small (4-5 cm) true leaves, were used as test substrate. The plants were infested with 200-400 whitefly eggs 4-5 days prior to chemical application. Four pots with individual plants were used for each treatment. Test compounds (2 mg) were dissolved in 1 mL of acetone solvent, forming stock solutions of 2000 ppm test compound. The stock solutions were diluted 10× with 0.025% Tween 20 in water (diluents) to obtain the solution at 200 ppm test compound. A hand-held aspirator-type sprayer was used for spraying a solution to both sides of cotton leaves until runoff. Reference plants (solvent check) were sprayed with the diluent only containing 10% by volume of acetone solvent. Treated plants were held in a holding room for 9 days at approximately 25° C. and ambient relative humidity (RH) prior to grading. Evaluation was conducted by counting the number of live 3-4 nymph stage per plant under a microscope. Percent control was measured by using Abbott's correction formula (W. S. Abbott, “A Method of Computing the Effectiveness of an Insecticide” J. Econ. Entomol. 18 (1925), pp. 265-267) as follows.
Biological Data for Green Peach Aphid (GPA) (MYZUPE) and Sweetpotato Whitefly-Crawler (WF) (BEMITA)” (see table section). Corrected % Control=100*(X−Y)/X
X=No. of live nymphs on solvent check plants and
Y=No. of live nymphs on treated plants
(§1) The mortality efficiency of the pesticidal compounds against GPA and WF insects was determined after treatment.

[2] = tested on: Green Peach Aphid (GPA) (Myzus persicae) (MYZUPE); test: Bioassay for Green Peach Aphid (GPA), foliar spray on cabbage seedlings; format: in vivo; conditions: 72 h, 200 ppm foliar spray on cabbage seedlings, graded after three days, Abbott corrected % control, read-out: GPA 200 ppm, % Control (or Mortality) rating
Description: Bioassay for Green Peach Aphid (GPA) (Myzus persicae) (MYZUPE)
The green peach aphid (Myzus persicae) is the most significant aphid pest of peach trees, causing decreased growth, shriveling of the leaves, and the death of various tissues. It is also hazardous because it acts as a vector for the transport of plant viruses, such as potato virus Y and potato leafroll virus to members of the nightshade/potato family Solanaceae, and various mosaic viruses to many other food crops. GPA attacks such plants as broccoli, burdock, cabbage, carrot, cauliflower, daikon, eggplant, green beans, lettuce, macadamia, papaya, peppers, sweet potatoes, tomatoes, watercress, and zucchini, among other plants GPA also attacks many ornamental crops such as carnation, chrysanthemum, flowering white cabbage, poinsettia, and roses. GPA has developed resistance to many pesticides.
Cabbage seedlings grown in 3-inch pots, with 2-3 small (3-5 cm) true leaves, were used as test substrate. The seedlings were infested with 20-50 GPA (wingless adult and nymph stages) one day prior to chemical application. Four pots with individual seedlings were used for each treatment. Test compounds (2 mg) were dissolved in 2 mL of acetone/methanol (1:1) solvent, forming stock solutions of 1000 ppm test compound. The stock solutions were diluted 5× with 0.025% Tween 20 in water to obtain the solution at 200 ppm test compound. A hand-held aspirator-type sprayer was used for spraying a solution to both sides of […] leaves until runoff. Reference plants (solvent check) were sprayed with the diluent only containing 20% by volume of acetone/methanol (1:1) solvent. Treated plants were held in a holding room for three days at approximately 25° C. and ambient relative humidity (RH) prior to grading. Evaluation was conducted by counting the number of live aphids per plant under a microscope. Percent control was measured by using Abbott's correction formula (W. S. Abbott, “A Method of Computing the Effectiveness of an Insecticide” J. Econ. Entomol. 18 (1925), pp. 265-267) as follows. Corrected % Control=100*(X−Y)/X
X=No. of live aphids on solvent check plants and
Y=No. of live aphids on treated plants
Biological Data for Green Peach Aphid (GPA) (MYZUPE) and Sweetpotato Whitefly-Crawler (WF) (BEMITA)” (see table section).
as §1

Compound | mortality at 200 ppm [1] [%] | mortality at 200 ppm [2] [%]
CCN(C(=O)C1CN(C(=O)c2cccnc2)C1)c1cn(-c2cccnc2)nc1Cl [FA17, N-(3-Chloro-1-(pyridin-3-yl)-1H-pyrazol-4-yl)-N-ethyl-1-nicotinoyl azetidine-3-carboxamide] | 0 to 80 | 0 to 80
CCN(C(=O)CC/C(C)=N/OCCC1CC1(F)F)c1cn(-c2cccnc2)nc1Cl (stereo not shown) [FA50, (E)-N-(3-Chloro-1-(pyridin-3-yl)-1H-pyrazol-4-yl)-4-((2-(2,2-difluorocyclopropyl)ethoxy)imino)-N-ethylpentanamide] | 80 to 100 | 80 to 100
CCN(C(=O)CC/C(C)=N/OCCCCC(F)(F)F)c1cn(-c2cccnc2)nc1Cl [FA4, (E/Z)-N-(3-Chloro-1-(pyridin-3-yl)-1H-pyrazol-4-yl)-N-ethyl-4-(((5,5,5-trifluoropentyl)oxy)imino)pentanamide] | 80 to 100 | 0 to 80
CCN(C(=O)CC/C(=N\OCCCCC(F)(F)F)c1cccs1)c1cn(-c2cccnc2)nc1Cl [FA28, (E)-N-(3-Chloro-1-(pyridin-3-yl)-1H-pyrazol-4-yl)-N-ethyl-4-(thiophen-2-yl)-4-(((5,5,5-trifluoropentyl)oxy)imino)butanamide] | 0 to 80 | 0 to 80
CCN(C(=O)CCN1CCOC1=O)c1cn(-c2cccnc2)nc1Cl [Compound F69, N-(3-Chloro-1-(pyridin-3-yl)-1H-pyrazol-4-yl)-N-ethyl-3-(2-oxooxazolidin-3-yl)propanamide] | 80 to 100 | 80 to 100
CCN(C(=O)CCNC(=O)CC#N)c1cn(-c2cccnc2)nc1Cl [Compound F101, N-(3-Chloro-1-(pyridin-3-yl)-1H-pyrazol-4-yl)-3-(2-cyanoacetamido)-N-ethylpropanamide] | 80 to 100 | 0 to 80
Cc1nn(-c2cccnc2)cc1N(C)C(=O)CCC(=O)N(C)C [Compound F62, N1,N1,N4-trimethyl-N4-(3-methyl-1-(pyridin-3-yl)-1H-pyrazol-4-yl)succinamide] | 80 to 100 | 80 to 100
CCN(C(=O)CCC(=O)N1CCCCC1)c1cn(-c2cccnc2)nc1Cl [Compound F21, N-(3-Chloro-1-(pyridin-3-yl)-1H-pyrazol-4-yl)-N-ethyl-4-oxo-4-(piperidin-1-yl)butanamide] | 80 to 100 | 0 to 80
CN(C(=O)CCN1CCSC1=O)c1cn(-c2cccnc2)nc1Cl [Compound F38, N-(3-Chloro-1-(pyridin-3-yl)-1H-pyrazol-4-yl)-N-methyl-3-(2-oxothiazolidin-3-yl)propanamide] | 80 to 100 | 80 to 100
CCN(C(=O)C1CCN(C(C)=O)C1)c1cn(-c2cccnc2)nc1Cl (stereo not shown) [Compound P20, 1-Acetyl-N-(3-chloro-1-(pyridin-3-yl)-1H-pyrazol-4-yl)-N-ethylpyrrolidine-3-carboxamide] | 0 to 80 | 80 to 100
CCN(C(=O)CCCC1CN(C)C1=O)c1cn(-c2cccnc2)nc1Cl (stereo not shown) [Compound F53, N-(3-Chloro-1-(pyridin-3-yl)-1H-pyrazol-4-yl)-N-ethyl-4-(1-methyl-2-oxoazetidin-3-yl)butanamide] | 80 to 100 | 80 to 100
CCN(C(=O)CCNC(=O)/C=C/C(F)(F)F)c1cn(-c2cccnc2)nc1Cl [Compound F65, (E)-N-(3-((3-Chloro-1-(pyridin-3-yl)-1H-pyrazol-4-yl)(ethyl)amino)-3-oxopropyl)-4,4,4-trifluorobut-2-enamide] | 80 to 100 | 80 to 100
CCN(C(=O)CC/C(=N\OCC1CC1(F)F)c1cccs1)c1cn(-c2cccnc2)nc1Cl (stereo not shown) [FA38, (E)-N-(3-Chloro-1-(pyridin-3-yl)-1H-pyrazol-4-yl)-4-(((2,2-difluorocyclopropyl)methoxy)imino)-N-ethyl-4-(thiophen-2-yl)butanamide] | 0 to 80 | 0 to 80
CN(C(=O)[C@H]1C=C[C@@H](NC(=O)OC(C)(C)C)C1)c1cn(-c2cccnc2)nc1Cl [Compound F116, tert-Butyl ((1S,4R)-4-((3-chloro-1-(pyridin-3-yl)-1H-pyrazol-4-yl)(methyl)carbamoyl)cyclopent-2-en-1-yl)carbamate] | 80 to 100 | 0 to 80
CCN(C(=O)C1CCN(C(=O)c2cccnc2)CC1)c1cn(-c2cccnc2)nc1Cl [FA8, N-(3-Chloro-1-(pyridin-3-yl)-1H-pyrazol-4-yl)-N-ethyl-1-nicotinoylpiperidine-4-carboxamide] | 0 to 80 | 80 to 100
CN(C(=O)CCN1CCOC1=O)c1cn(-c2cccnc2)nc1Cl [Compound F31, N-(3-chloro-1-(pyridin-3-yl)-1H-pyrazol-4-yl)-N-methyl-3-(2-oxooxazolidin-3-yl)propanamide] | 80 to 100 | 80 to 100
CCN(C(=O)C1CCN(C(=O)CCC#N)CC1)c1cn(-c2cccnc2)nc1Cl [FA7, N-(3-Chloro-1-(pyridin-3-yl)-1H-pyrazol-4-yl)-1-(3-cyanopropanoyl)-N-ethylpiperidine-4-carboxamide] | < 0 | 80 to 100
CCN(C(=O)CN(C)C(=O)CC(F)(F)F)c1cn(-c2cccnc2)nc1Cl [Compound F120, N-(2-((3-Chloro-1-(pyridin-3-yl)-1H-pyrazol-4-yl)(ethyl)amino)-2-oxoethyl)-3,3,3-trifluoro-N-methylpropanamide] | 80 to 100 | 80 to 100
CCN(C(=O)CC/C(=N/OCCCC(F)(F)F)c1cccs1)c1cn(-c2cccnc2)nc1Cl [FA27, (Z)-N-(3-Chloro-1-(pyridin-3-yl)-1H-pyrazol-4-yl)-N-ethyl-4-(thiophen-2-yl)-4-((4,4,4-trifluorobutoxy)imino)butanamide] | 0 to 80 | 0 to 80
CCN(C(=O)C(C)OC(=O)N(C)OC)c1cn(-c2cccnc2)nc1Cl (stereo not shown) [Compound F16, 1-((3-Chloro-1-(pyridin-3-yl)-1H-pyrazol-4-yl)(ethyl)amino)-1-oxopropan-2-yl methoxy(methyl) carbamate] | 80 to 100 | 80 to 100
CCN(C(=O)CCC(=O)CCC(F)(F)F)c1cn(-c2cccnc2)nc1Cl [FA76, N-(3-Chloro-1-(pyridin-3-yl)-1H-pyrazol-4-yl)-N-ethyl-7,7,7-trifluoro-4-oxoheptanamide] | 80 to 100 | 0 to 80
CCN(C(=O)CC/C(C)=N/OCC(F)(F)F)c1cn(-c2cccnc2)nc1Cl [Compound F51, (E/Z)-N-(3-Chloro-1-(pyridin-3-yl)-1H-pyrazol-4-yl)-N-ethyl-4-((2,2,2-trifluoroethoxy)imino) pentanamide] | 80 to 100 | 80 to 100
CCN(C(=O)CC/C(=N/OCCCCC(F)(F)F)c1cccs1)c1cn(-c2cccnc2)nc1Cl [FA29, (Z)-N-(3-Chloro-1-(pyridin-3-yl)-1H-pyrazol-4-yl)-N-ethyl-4-(thiophen-2-yl)-4-(((5,5,5-trifluoropentyl)oxy)imino)butanamide] | 80 to 100 | 0 to 80
